Source: patent US11655238B2 (priority 2018, dated 2023)
Converted amounts (≈) assume the structure as drawn. Like-named read-outs stand apart in the source and are kept apart here.

Assays:
Assay type in all cases: cell-based
[1] = test system: Mycobacterium bovis BCG strain; assay: microbe, parasite or virus in culture; conditions: for MIC: Mycobacterium tuberculosis variant bovis BCG, BCG, 168 h, read-out: MIC (μg/mL) Mycobacterium bovis BCG, BCG strain, 7H9 medium, 37° C., 168 hours, resazurin; for inhibitory effect on BCG strain (summary of Table 2): in words
[2] = test system: Mycobacterium smegmatis strain (mc2155); assay: Resazurin microplate MIC on Mycobacterium smegmatis; conditions: for MIC: Mycolicibacterium smegmatis, MC2155, 48 h
[3] = test system: Mycobacterium tuberculosis H37Ra strain; assay: microbe, parasite or virus in culture; conditions: for MIC: Mycobacterium tuberculosis, H37RA, 168 h, read-out: MIC (μg/mL) Mycobacterium tuberculosis H37Ra
[4] = mc2155, 7H9 medium, 37° C., 48 hours, resazurin, read-out: MIC (μg/mL) Mycobacterium smegmatis

SMILES	MIC [1] [µg/mL]	inhibitory effect on BCG strain (summary of Table 2) [1]	inhibitory effect on smegmatis strain (summary of Table 2) [2]	MIC [2, 4] [µg/mL]	inhibitory effect on H37Ra strain (summary of Table 2) [3]	MIC [3] [µg/mL]	MIC ([2]; read-out: MIC (μg/mL) Mycobacterium smegmatis, mc2155, 7H9 medium, 37° C., 48 hours, resazurin) [µg/mL]
Cc1c(C(=O)NCCCNC2C3CC4CC(C3)CC2C4)nn(-c2ccc(Cl)cc2Cl)c1-c1ccc(Cl)cc1 (stereo not drawn) [Compound 18, N-(3-(((1r,3r,5r,7r)-adamantan-2-yl)amino)propyl)-5-(4-chlorophenyl)-1-(2,4-dichlorophenyl)-4-methyl-1H-pyrazole-3-carboxamide]	6.1 (≈ 10.7 µM)	good inhibitory effects	good inhibitory effects	24.4 (≈ 42.6 µM)	good inhibitory effects	6.1 (≈ 10.7 µM)	
Cc1c(C(=O)NCCNC2C3CC4CC(C3)CC2C4)nn(-c2ccc(F)cc2F)c1-c1ccc(Cl)cc1 (stereo not drawn) [Compound 76, N-(2-(((1r,3r,5r,7r)-adamantan-2-yl)amino)ethyl)-5-(4-chloro-phenyl)-1-(2,4-difluorophenyl)-4-methyl-1H-pyrazole-3-carboxamide]	3.66 (≈ 6.97 µM)	good inhibitory effects	good inhibitory effects	7.32 (≈ 13.9 µM)	good inhibitory effects	1.83 (≈ 3.49 µM)	
Cc1c(CNS(=O)(=O)CCNC23CC4CC(C)(CC(C)(C4)C2)C3)nn(-c2ccc(Cl)cc2Cl)c1-c1ccc(Cl)cc1 [Compound 168, N-((5-(4-chlorophenyl)-1-(2,4-dichlorophenyl)-4-methyl-1H-pyrazol-3-yl)methyl)-2-(((1r,3R,5S,7r)-3,5-dimethyl-adamantan-1-yl)amino)ethane-1-sulfonamide]	21.3 (≈ 33.5 µM)			21.3 (≈ 33.5 µM)		10.7 (≈ 16.8 µM)	
Cc1c(C(=O)OC2CC3CCC2(C)C3(C)C)nn(-c2ccc(Cl)cc2Cl)c1-c1ccc(Cl)cc1 (stereo not drawn) [Compound 171, 1,7,7-trimethylbicyclo[2.2.1]-heptan-2-yl 5-(4-chlorophenyl)-1-(2,4-dichlorophenyl)-4-methyl-1H-pyrazole-3-carbox-ylate]	> 200			200 (≈ 386 µM)		> 200	
Cc1c(CNCCCNC2C3CC4CC(C3)CC2C4)nn(-c2ccc(Cl)cc2Cl)c1-c1ccc(Cl)cc1 (stereo not drawn) [Compound 164, N1-((1r,3r,5r,7r)-adamantan-2-yl)-N3-((5-(4-chloro-phenyl)-1-(2,4-dichloro-phenyl)-4-methyl-1H-pyrazol-3-yl)methyl)propane-1,3-diamine]	3.24 (≈ 5.81 µM)			> 207		3.24 (≈ 5.81 µM)	
Cc1c(C(=O)N(C)CCNC2C3CC4CC(C3)CC2C4)nn(-c2ccc(Cl)cc2Cl)c1-c1ccc(Cl)cc1 (stereo not drawn) [Compound 74, N-(2-(((1r,3r,5r,7r)-adamantan-2-yl)amino)ethyl)-5-(4-chlorophenyl)-1-(2,4-dichlorophenyl)-N,4-dimethyl-1H-pyrazole-3-carboxamide]	3.35 (≈ 5.86 µM)	good inhibitory effects	good inhibitory effects	13.4 (≈ 23.4 µM)	good inhibitory effects	3.35 (≈ 5.86 µM)	
Cc1c(C(=O)NCCNC23CC4CC(C)(CC(C)(C4)C2)C3)nn(-c2ccc(Cl)cc2Cl)c1-c1ccc(Cl)cc1 [Compound 23, (5-(4-chlorophenyl)-1-(2,4-dichlorophenyl)-N-(2-(((1r,3R,5S,7r)-3,5-dimethyl-adamantan-1-yl)amino)ethyl)-4-methyl-1H-pyrazole-3-carboxamide]	3.66 (≈ 6.25 µM)	good inhibitory effects	good inhibitory effects	7.32 (≈ 12.5 µM)	good inhibitory effects	1.83 (≈ 3.12 µM)	
Cc1c(C(=O)NCCNC2C3CC4CC(C3)CC2C4)nn(-c2ccc(Cl)cc2Cl)c1-c1ccc(Cl)cc1 (stereo not drawn) [Compound 17, N-(2-(((1r,3r,5r,7r)-adamantan-2-yl)amino)ethyl)-5-(4-chloro-phenyl)-1-(2,4-dichlorophenyl)-4-methyl-1H-pyrazole-3-carboxamide]	5.95 (≈ 10.7 µM)	good inhibitory effects	good inhibitory effects	11.9 (≈ 21.3 µM)	good inhibitory effects	5.95 (≈ 10.7 µM)	
Cc1c(C(=O)O[C@H]2C[C@H]3CC[C@]2(C)C3(C)C)nn(-c2ccc(Cl)cc2Cl)c1-c1ccc(Cl)cc1 [Compound 173, (1R,2S,4R)-1,7,7-trimethyl-bicyclo[2.2.1]heptan-2-yl 5-(4-chlorophenyl)-1-(2,4-dichlorophenyl)-4-methyl-1H-pyrazole-3-carboxylate]	> 232			57.9 (≈ 112 µM)		> 232	
Cc1c(C(=O)O[C@H]2C[C@@H]3CC[C@@]2(C)C3(C)C)nn(-c2ccc(Cl)cc2Cl)c1-c1ccc(Cl)cc1 [Compound 172, (1S,2S,4S)-1,7,7-trimethyl-bicyclo[2.2.1]heptan-2-yl 5-(4-chlorophenyl)-1-(2,4-dichlorophenyl)-4-methyl-1H-pyrazole-3-carboxylate]	> 338					84.5 (≈ 163 µM)	> 338
Cc1c(CNCCCCNC2C3CC4CC(C3)CC2C4)nn(-c2ccc(Cl)cc2Cl)c1-c1ccc(Cl)cc1 (stereo not drawn) [Compound 167, N1-((1r,3r,5r,7r)-adamantan-2-yl)-N4-((5-(4-chlorophenyl)-1-(2,4-dichlorophenyl)-4-methyl-1H-pyrazol-3-yl)-methyl)butane-1,4-diamine]	1.05 (≈ 1.84 µM)			2.1 (≈ 3.67 µM)		2.1 (≈ 3.67 µM)	
Cc1c(CNC(=O)NCCC23CC4CC(CC(C4)C2)C3)nn(-c2ccc(Cl)cc2Cl)c1-c1ccc(Cl)cc1 [Compound 12, 1-(2-((3r,5r,7r)-adamantan-1-yl)ethyl)-3-((5-(4-chloro-phenyl)-1-(2,4-dichlorophenyl)-4-methyl-1H-pyrazol-3-yl)-methyl)urea]	> 122			15.2 (≈ 26.6 µM)		122 (≈ 213 µM)	
Cc1ccc(-n2nc(C(=O)NCCNC3C4CC5CC(C4)CC3C5)c(C)c2-c2ccc(Cl)cc2)c(C)c1 (stereo not drawn) [Compound 77, N-(2-(((1r,3r,5r,7r)-adamantan-2-yl)amino)ethyl-5-(4-chloro-phenyl)-1-(2,4-dimethylphenyl)-4-methyl-1H-pyrazole-3-carboxamide]	5.18 (≈ 10 µM)	good inhibitory effects	good inhibitory effects	10.4 (≈ 20 µM)	good inhibitory effects	2.59 (≈ 5.01 µM)	
Cc1c(CN(C)CCNC2C3CC4CC(C3)CC2C4)nn(-c2ccc(Cl)cc2Cl)c1-c1ccc(Cl)cc1 (stereo not drawn) [Compound 165, N1-((1r,3r,5r,7r)-adamantan-2-yl)-N2-((5-(4-chloro-phenyl)-1-(2,4-dichloro-phenyl)-4-methyl-1H-pyrazol-3-yl)methyl)-N2-methylethane-1,2-diamine]	3.62 (≈ 6.49 µM)			57.9 (≈ 104 µM)		1.81 (≈ 3.24 µM)	
Cc1c(CNC(=O)CNC23CC4CC(C)(CC(C)(C4)C2)C3)nn(-c2ccc(Cl)cc2Cl)c1-c1ccc(Cl)cc1 [Compound 169, N-((5-(4-chlorophenyl)-1-(2,4-dichlorophenyl)-4-methyl-1H-pyrazol-3-yl)methyl)-2-(((1r,3R,5S,7r)-3,5-dimethyl-adamantan-1-yl)amino)-acetamide]	1.91 (≈ 3.26 µM)			0.95 (≈ 1.62 µM)		1.91 (≈ 3.26 µM)	
Cc1c(C(=O)NCCCCNC2C3CC4CC(C3)CC2C4)nn(-c2ccc(Cl)cc2Cl)c1-c1ccc(Cl)cc1 (stereo not drawn) [Compound 19, N-(4-(((1r,3r,5r,7r)-adamantan-2-yl)amino)butyl)-5-(4-chlorophenyl)-1-(2,4-dichlorophenyl)-4-methyl-1H-pyrazole-3-carboxamide]	6.71 (≈ 11.5 µM)	good inhibitory effects	good inhibitory effects	13.4 (≈ 22.9 µM)	good inhibitory effects	6.71 (≈ 11.5 µM)	
Cc1c(CNC(=O)NC23CC4CC(CC(C4)C2)C3)nn(-c2ccc(Cl)cc2Cl)c1-c1ccc(Cl)cc1 [Compound 10, 1-((3s,5s,7s)-adamantan-1-yl)-3-((5-(4-chlorophenyl)-1-(2,4-dichlorophenyl)-4-methyl-1H-pyrazol-3-yl)methyl)urea]	> 171			171 (≈ 314 µM)		> 171	
Cc1c(CNCCNC2C3CC4CC(C3)CC2C4)nn(-c2ccc(Cl)cc2Cl)c1-c1ccc(Cl)cc1 (stereo not drawn) [Compound 166, N1-((1r,3r,5r,7r)-adamantan-2-yl)-N2-((5-(4-chlorophenyl)-1-(2,4-dichlorophenyl)-4-methyl-1H-pyrazol-3-yl)-methyl)ethane-1,2-diamine]	7.62 (≈ 14 µM)			7.62 (≈ 14 µM)		3.81 (≈ 7 µM)	
Cc1c(C(=O)NCCNC23CC4CC(CC(C4)C2)C3)nn(-c2ccc(Cl)cc2Cl)c1-c1ccc(Cl)cc1 [Compound 163, N-(2-(((3s,5s,7s)-adamantan-1-yl)amino)ethyl)-5-(4-chloro-phenyl)-1-(2,4-dichloro-phenyl)-4-methyl-1H-pyrazole-3-carboxamide]	3.66 (≈ 6.56 µM)	good inhibitory effects	good inhibitory effects	14.6 (≈ 26.2 µM)	good inhibitory effects	3.66 (≈ 6.56 µM)	
Cc1c(CNC(=O)NCC23CC4CC(CC(C4)C2)C3)nn(-c2ccc(Cl)cc2Cl)c1-c1ccc(Cl)cc1 [Compound 11, 1-(((3r,5r,7r)-adamantan-1-yl)-methyl)-3-((5-(4-chlorophenyl)-1-(2,4-dichlorophenyl)-4-methyl-1H-pyrazol-3-yl)-methyl)urea]	> 134			134 (≈ 240 µM)		33.5 (≈ 60.1 µM)	
